Measured values reported in patent US12077503B2, “Substituted cyclic amides and their use as herbicides” (FMC CORPORATION, priority 2015, dated 2024).

Key:
Format in all cases: in vivo
Kochia (Kochia scoparia) [1] = test: Test A preemergence; details: Bassia scoparia, pre-emergence, 240 h, Preemergence
Procedure, shortened: (§1)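 In a loam soil and sand blend, planted seeds got a preemergence directed soil spray, and young plants at the one- to two-leaf stage, 2–10 cm high, got a postemergence application; ~10 d greenhouse hold; injury rated visually, 0 = none, 100 = complete control.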

[2] = tested on: barnyardgrass (Echinochloa crus-galli); test: Test A preemergence; details: Echinochloa crus-galli, pre-emergence, 240 h, Preemergence
Procedure, shortened: as §1

[3] = tested on: giant foxtail (Setaria faberii); test: Test A preemergence; details: Setaria faberi, pre-emergence, 240 h, Preemergence
Procedure, shortened: as §1

[4] = tested on: pigweed (Amaranthus retroflexus); test: Test A preemergence; details: Amaranthus retroflexus, pre-emergence, 240 h, Preemergence
[5] = tested on: ragweed (common ragweed, Ambrosia elatior); test: Test A preemergence; details: Ambrosia artemisiifolia, pre-emergence, 240 h, Preemergence
Procedure, shortened: as §1

[6] = tested on: ryegrass, Italian (Italian ryegrass, Lolium multiflorum); test: Test A preemergence; details: Lolium multiflorum, pre-emergence, 240 h, Preemergence
Procedure, shortened: as §1

[7] = tested on: Galium (catchweed bedstraw, Galium aparine); test: Test A postemergence; details: Galium, post-emergence, 240 h, Postemergence
Procedure, shortened: as §1

Kochia (Kochia scoparia) [8] = test: Test A postemergence; details: Bassia scoparia, post-emergence, 240 h, Postemergence
Procedure, shortened: as §1

[9] = tested on: barnyardgrass (Echinochloa crus-galli); test: Test A postemergence; details: Echinochloa crus-galli, post-emergence, 240 h, Postemergence
Procedure, shortened: as §1

[10] = tested on: blackgrass (Alopecurus myosuroides); test: Test A postemergence; details: Alopecurus myosuroides, post-emergence, 240 h, Postemergence
Procedure, shortened: as §1

corn (Zea mays) = test: Test A postemergence; details: Zea mays, post-emergence, 240 h, Postemergence
Procedure, shortened: as §1

[11] = tested on: giant foxtail (Setaria faberii); test: Test A postemergence; details: Setaria faberi, post-emergence, 240 h, Postemergence
Procedure, shortened: as §1

[12] = tested on: pigweed (Amaranthus retroflexus); test: Test A postemergence; details: Amaranthus retroflexus, post-emergence, 240 h, Postemergence
Procedure, shortened: as §1

[13] = tested on: ragweed (common ragweed, Ambrosia elatior); test: Test A postemergence; details: Ambrosia artemisiifolia, post-emergence, 240 h, Postemergence
Procedure, shortened: as §1

[14] = tested on: ryegrass, Italian (Italian ryegrass, Lolium multiflorum); test: Test A postemergence; details: Lolium multiflorum, post-emergence, 240 h, Postemergence
Procedure, shortened: as §1

[15] = tested on: wheat (Triticum aestivum); test: Test A postemergence; details: Triticum aestivum, post-emergence, 240 h, Postemergence
Procedure, shortened: as §1

[16] = tested on: barnyardgrass (Echinochloa crus-galli); test: Test B flooded paddy test; details: Echinochloa crus-galli, 360 h, Flood, 250 g ai/ha; visually evaluated after 13 to 15 d; read-out: Plant response rating, Barnyardgrass (0 to 100 scale where 0 is no effect and 100 is complete control)
Procedure, shortened: (§2)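 Flooding to 3 cm over soil accompanied treatment, which consisted of adding compound to the standing water around 2-leaf plants; depth was then maintained. Visual assessment versus controls followed at 13 to 15 d (scale 0–100, 0 meaning no effect).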

[17] = tested on: ducksalad (Heteranthera limosa); test: Test B flooded paddy test; details: Heteranthera limosa, 360 h, Flood, 250 g ai/ha; visually evaluated after 13 to 15 d; read-out: Plant response rating, Ducksalad (0 to 100 scale where 0 is no effect and 100 is complete control)
Procedure, shortened: as §2

rice (Oryra sativa) = test: Test B flooded paddy test; details: Oryza sativa, 360 h, Flood, 250 g ai/ha; visually evaluated after 13 to 15 d; read-out: Plant response rating, Rice (0 to 100 scale where 0 is no effect and 100 is complete control)
Procedure, shortened: as §2

[18] = tested on: sedge, umbrella (small-flower umbrella sedge, Cyperus difformis); test: Test B flooded paddy test; details: Cyperus difformis, 360 h, Flood, 250 g ai/ha; visually evaluated after 13 to 15 d; read-out: Plant response rating, Sedge, Umbrella (0 to 100 scale where 0 is no effect and 100 is complete control)
Procedure, shortened: as §2

Compound `Cc1ccc([C@H]2CN(C)C(=O)[C@@H]2C(=O)Nc2ccc(F)nc2F)cc1` [Compound 1402] has a pest or weed control at 31 g/ha (Kochia (Kochia scoparia) [1]; 31 g ai/ha, 0 to 100 scale where 0 is no effect and 100 is complete control, read-out: Kochia plant response rating) of 20%, a pest or weed control at 125 g/ha (Kochia (Kochia scoparia) [1]; 125 g ai/ha, 0 to 100 scale (0 no effect, 100 complete control), read-out: Plant response rating, Kochia) of 80% and a pest or weed control at 31 g/ha ([2]; 31 g ai/ha, 0 to 100 scale where 0 is no effect and 100 is complete control, read-out: Barnyardgrass plant response rating) of 100%. For the same compound, the pest or weed control at 125 g/ha ([2]; 125 g ai/ha, 0 to 100 scale (0 no effect, 100 complete control), read-out: Plant response rating, Barnyardgrass) was 90%, the pest or weed control at 31 g/ha ([3]; 31 g ai/ha, 0 to 100 scale where 0 is no effect and 100 is complete control, read-out: Foxtail, Giant plant response rating) was 100% and the pest or weed control at 125 g/ha ([3]; 125 g ai/ha, 0 to 100 scale (0 no effect, 100 complete control), read-out: Plant response rating, Foxtail, Giant) was 100%. The pest or weed control at 31 g/ha ([4]; 31 g ai/ha, 0 to 100 scale where 0 is no effect and 100 is complete control, read-out: Pigweed plant response rating) was 20%, the pest or weed control at 125 g/ha ([4]; 125 g ai/ha, 0 to 100 scale (0 no effect, 100 complete control), read-out: Plant response rating, Pigweed) was 90% and the pest or weed control at 31 g/ha ([5]; 31 g ai/ha, 0 to 100 scale where 0 is no effect and 100 is complete control, read-out: Ragweed plant response rating) was 30%. For the same compound, the pest or weed control at 125 g/ha ([5]; 125 g ai/ha, 0 to 100 scale (0 no effect, 100 complete control), read-out: Plant response rating, Ragweed) was 0%, the pest or weed control at 31 g/ha ([6]; 31 g ai/ha, 0 to 100 scale where 0 is no effect and 100 is complete control, read-out: Ryegrass, Italian plant response rating) was 0% and the pest or weed control at 125 g/ha ([6]; 125 g ai/ha, 0 to 100 scale (0 no effect, 100 complete control), read-out: Plant response rating, Ryegrass, Italian) was 0%. For the same compound, the pest or weed control at 31 g/ha ([7]; 31 g ai/ha, 0 is no effect, 100 is complete control, read-out: Galium plant response rating (0 to 100 scale)) was 60%, the pest or weed control at 125 g/ha ([7]; 125 g ai/ha, visual injury after approx. 10 d, 0 to 100 scale, 0 no effect, 100 complete control, read-out: Plant response rating, Galium) was 70% and the pest or weed control at 31 g/ha (Kochia (Kochia scoparia) [8]; 31 g ai/ha, 0 is no effect, 100 is complete control, read-out: Kochia plant response rating (0 to 100 scale)) was 30%. It also gave a pest or weed control at 125 g/ha (Kochia (Kochia scoparia) [8]; 125 g ai/ha, visual injury after approx. 10 d, 0 to 100 scale, 0 no effect, 100 complete control, read-out: Plant response rating, Kochia) of 70%, a pest or weed control at 31 g/ha ([9]; 31 g ai/ha, 0 is no effect, 100 is complete control, read-out: Barnyardgrass plant response rating (0 to 100 scale)) of 80% and a pest or weed control at 125 g/ha ([9]; 125 g ai/ha, visual injury after approx. 10 d, 0 to 100 scale, 0 no effect, 100 complete control, read-out: Plant response rating, Barnyardgrass) of 90%. The pest or weed control at 31 g/ha ([10]; 31 g ai/ha, 0 is no effect, 100 is complete control, read-out: Blackgrass plant response rating (0 to 100 scale)) was 0%, the pest or weed control at 125 g/ha ([10]; 125 g ai/ha, visual injury after approx. 10 d, 0 to 100 scale, 0 no effect, 100 complete control, read-out: Plant response rating, Blackgrass) was 50% and the plant injury at 31 g/ha (corn (Zea mays); 31 g ai/ha, 0 is no effect, 100 is complete control, read-out: Corn plant response rating (0 to 100 scale)) was 0%. For the same compound, the Corn plant response rating (crop injury, 0 = no effect, 100 = complete kill) at 125 g/ha (corn (Zea mays); 125 g ai/ha, visual injury after approx. 10 d, 0 to 100 scale, 0 no effect, 100 complete control) was 0%, the pest or weed control at 31 g/ha ([11]; 31 g ai/ha, 0 is no effect, 100 is complete control, read-out: Foxtail, Giant plant response rating (0 to 100 scale)) was 50% and the pest or weed control at 125 g/ha ([11]; 125 g ai/ha, visual injury after approx. 10 d, 0 to 100 scale, 0 no effect, 100 complete control, read-out: Plant response rating, Foxtail, Giant) was 90%. The pest or weed control at 31 g/ha ([12]; 31 g ai/ha, 0 is no effect, 100 is complete control, read-out: Pigweed plant response rating (0 to 100 scale)) was 0%, the pest or weed control at 125 g/ha ([12]; 125 g ai/ha, visual injury after approx. 10 d, 0 to 100 scale, 0 no effect, 100 complete control, read-out: Plant response rating, Pigweed) was 0% and the pest or weed control at 31 g/ha ([13]; 31 g ai/ha, 0 is no effect, 100 is complete control, read-out: Ragweed plant response rating (0 to 100 scale)) was 0%. The pest or weed control at 125 g/ha ([13]; 125 g ai/ha, visual injury after approx. 10 d, 0 to 100 scale, 0 no effect, 100 complete control, read-out: Plant response rating, Ragweed) was 20%, the pest or weed control at 31 g/ha ([14]; 31 g ai/ha, 0 is no effect, 100 is complete control, read-out: Ryegrass, Italian plant response rating (0 to 100 scale)) was 0% and the pest or weed control at 125 g/ha ([14]; 125 g ai/ha, visual injury after approx. 10 d, 0 to 100 scale, 0 no effect, 100 complete control, read-out: Plant response rating, Ryegrass, Italian) was 0%. The plant injury at 31 g/ha ([15]; 31 g ai/ha, 0 is no effect, 100 is complete control, read-out: Wheat plant response rating (0 to 100 scale)) was 20%, the plant injury at 125 g/ha ([15]; 125 g ai/ha, visual injury after approx. 10 d, 0 to 100 scale, 0 no effect, 100 complete control, read-out: Plant response rating, Wheat) was 40% and the pest or weed control at 250 g/ha [16] was 90%. It also gave a pest or weed control at 250 g/ha [17] of 95%, a pest or weed control at 250 g/ha (rice (Oryra sativa)) of 0% and a pest or weed control at 250 g/ha [18] of 0%.
